Test results published in patent US10844141B2, “Process for obtaining polysaccharides from jatoba (Hymenea courbaril l ) seeds, cosmetic composition comprising said polysaccharides and uses thereof” (NATURA COSMÉTICOS S.A., priority 2008, dated 2020).
Several values for one entry are separate records, joined by “and”; a condition that tells them apart may be missing. Equal values may be shown once.

Columns and labels:
[1] = test system: human skin fibroblasts in primary culture; assay: Cell proliferation by neutral red staining (cell viability); format: cell-based; conditions: TGF positive control, 96 hours of incubation, control = 100
Description: (§1) Assays were carried out to assess the potential of the polysaccharides obtained in accordance with the present invention in promoting cell proliferation (the increase in the number of cells in relation to a control group not treated with the active ingredient) by analyzing cell viability through neutral red staining. Another object of the assays was to assess the procollagen potential of active ingredients (collagen in excess produced by the cells treated with the active ingredient in relation to the untreated control cells), by detecting the collagen in the culture supernatant through the sirius red stain.
a) Whether or not the presence of a specific active ingredient in the cell culture, for one or more periods, results in an increase in the number of cells in relation to the control group (cells not treated with the same active ingredient). The number of cells is estimated as a function of the cell viability rate, which is monitored by the incubation of fibroblasts with the vital stain neutral red at the end of the assay period (96 h). This stain is incorporated into living cells so that the cell viability rate is given by the intensity of the stain absorbed by the cells in a directly proportional ratio. The colorimetric reading is carried out in a spectrophotometer, at the wavelength of 540 nm.

[2] = test system: human skin fibroblasts in primary culture; assay: Procollagen potential / collagen synthesis by sirius red stain in culture supernatant; format: cell-based; conditions: TGF positive control, 96 hours; for Normalized Collagen (%) (increase in collagen synthesis): control = 0.00
Description: as §1
b) Whether or not the presence of the active ingredient induces the cells to produce more collagen per se. To this end, dermis-derived human fibroblasts are incubated with the […](TGF-β), known to induce collagen synthesis and secretion (positive control). Simultaneously, other fibroblasts under the same condition are incubated with the active ingredient being tested. The collagen is identified by the sirius red stain (picrosirius solution), which has affinity for procollagen and collagen molecules. The procollagen potential of each active ingredient is identified by the increase in optical density (absorbance 540 nm filter) measured after the dissolution of the pigments previously absorbed by the collagen present in the culture supernatants.

Substance: tumor growth factor-β [TGF]
- Cell Proliferation [1]: 136.00% and 148.1%
- Total Collagen ± standard deviation (optical density) ([2]; control 0.152): 0.224 ± 0.009 Abs
- Normalized Collagen (%) (increase in collagen synthesis) [2]: 98.10%
- Normalized Collagen (%) (increase in collagen synthesis) ([2]; listed as TGF-b): 98.1%
- Collagen (%) after normalization by the viability index ([2]; control = 100.00 (Table 2)): 109.4%
- Normalized Collagen ([2]; normalized by viability index, control = 100.00): 198.10%
